Reference: patent US4536400A, “Phosphonoformic acid esters” (priority 1977, dated 1985)
Several values for one entry are separate records, joined by “and”; a condition that tells them apart may be missing. Equal values may be shown once. Read-outs that look alike come from different tables or passages of the source.

What was measured:
herpes simplex type 1 = assay: Plaque reduction assay for herpes simplex type 1 on GMK monolayers; type: cell-based; conditions: for inhibition at 400 µM: Human alphaherpesvirus 1, 400 μM test compound; for inhibition at 500 µM: Human alphaherpesvirus 1, 500 μM test compound
Experimental: The plaque reduction assay for herpes simplex type 1 was performed on GMK (Green Monkey Kidney) cells as described by Ejereito et al. J. Gen. Virol. 2 (1968) 357. Monolayers on 5 cm petri dishes were used and after virus adsorption the test compound was added in the medium.
The plaque reduction assay for herpes simplex type 1 was performed on GMK (Green Monkey Kidney) cells as described by Ejereito et al. J. Gen. Virol 2 (1968) 357. Monolayers on 5 cm petri dishes were used and after virus adsorption the test compound was added in the medium.
Inhibition of herpes simplex type 1 plaque on GMK monolayers

[1] = test system: cutaneous herpes simplex type 1 infections; assay: Inhibition of cutaneous herpes on guinea pigs; type: in vivo, guinea pig; conditions: scale 0 to 3
From the text: The effect of cutaneous herpes simplex type 1 infections have been measured in a guinea pig model described by Hubler et al. J. Invest Dermatol 69 (1974) 92. […] The appearance of an infected treated area and a similar infected untreated (only isopropanol-glycerol-water) area was scored daily on a scale from 0 to 3. The total effect is judged from the score at day 5.

[2] = test system: influenza (WSN Wilson Smith Neurotropic type A); assay: Inhibition of influenza WSN plaque on MDCK monolayers; type: cell-based, influenza virus
influenza Victoria = assay: Inhibition of influenza Victoria plaque on MDCK monolayers; type: cell-based, influenza virus
[3] = Preliminary acute toxicity test in mice; type: in vivo; conditions: groups of two male NMRI mice
Experimental: A preliminary acute toxicity test was carried out in mice. Groups of two male mice of the NMRI strain weighing 20-21 g received the test compound in doses of 62.5-500 mg/kg ip. The compound was given as a solution in 0.9% NaCl. The number of animals dead 24 hours after injection was as follows.

[4] = treated in 0.1% Tween 80-10% aqueous glycerol, start of treatment 24 hours after infection
[5] = Day 1, 10 μmol intraperitoneally, urine of two NMRI male mice
[6] = Day 2, 10 μmol intraperitoneally, urine of two NMRI male mice
[7] = Day 3, 10 μmol intraperitoneally, urine of two NMRI male mice
[8] = treated in 0.1% Tween 80-10% aqueous glycerol
[9] = topical 2% solution, start of treatment 24 hours after infection
[10] = topical 2% solution in isopropanol-glycerol-water twice daily for 3 days starting 4 hours after infection

SMILES: COc1ccc(OC(=O)P(=O)([O-])[O-])cc1.[Na+].[Na+] [VIS 239, Disodium p-methoxyphenoxycarbonylphosphonate]
- Inhibition (%) (herpes simplex type 1; 500 μM test compound, 500 µM): 36% and 52% and 70%
- inhibition at 400 µM (herpes simplex type 1): ~60%
- inhibition at 600 µM (herpes simplex type 1; Human alphaherpesvirus 1, 600 μM test compound): > 90%
- Score at day 5, treated [1, 4]: 1

SMILES: Cc1ccc(OC(=O)P(=O)(O)O)cc1 [drawing 119]
- Recovered phosphonoformic acid activity in urine [5]: 1.25 μmol phosphonoformic acid
- Recovered phosphonoformic acid activity in urine [6]: 0.25 μmol phosphonoformic acid
- Recovered phosphonoformic acid activity in urine [7]: 0.10 μmol phosphonoformic acid

SMILES: O=C(O)P(=O)(O)Oc1ccc(Cl)cc1 [VIS 066, p-chlorophenyl disodium oxycarbonylphosphonate]
- Inhibition (%) (herpes simplex type 1; 5 μM test compound, 5 µM): 89% and ~ 75%
- Inhibition (%) (herpes simplex type 1; 10 μM test compound): > 90%
- Inhibition (%) (herpes simplex type 1; 20 μM test compound): 98%
- Inhibition (%) (herpes simplex type 1; 100 μM test compound): > 99.9%
- Inhibition (%) (herpes simplex type 1; 500 μM test compound): > 99.9%
- Inhibition (%) ([2]; 100 μM test compound): 54%
- Inhibition (%) ([2]; 500 μM test compound): > 99.9%

SMILES: COc1ccc(OP(=O)(O)C(=O)O)cc1 [VIS 067, p-Methoxyphenyl disodium oxycarbonylphosphonate]
- Inhibition (%) (herpes simplex type 1; 5 μM test compound): 57%
- Inhibition (%) (herpes simplex type 1; 20 μM test compound): 87%
- Inhibition (%) (herpes simplex type 1; 100 μM test compound): 99%
- Inhibition (%) (herpes simplex type 1; 500 μM test compound): > 99.9%
- Inhibition (%) ([2]; 100 μM test compound): 58%
- Inhibition (%) ([2]; 500 μM test compound, 500 µM): 73% and > 99.9%
- Score at day 5, treated [1, 8]: 1

SMILES: O=C(O)P(=O)(O)Oc1ccccc1 [VIS 041, Phenyl disodium oxycarbonylphosphonate]
- Inhibition (%) (herpes simplex type 1; 10 μM test compound): ~ 50%
- Inhibition (%) (herpes simplex type 1; 40 μM test compound): > 90%
- Inhibition (%) (herpes simplex type 1; 100 μM test compound, 100 µM): > 99.9% and 99%
- Inhibition (%) (herpes simplex type 1; 500 μM test compound): > 99.9%
- Inhibition (%) ([2]; 500 μM test compound): > 99.9%
- Score at day 5, treated [1, 9]: 0

SMILES: Cc1ccc(OP(=O)(O)C(=O)O)cc1 [VIS 059, p-tolyl disodium oxycarbonylphosphonate]
- Inhibition (%) (herpes simplex type 1; 5 μM test compound, 5 µM): 57% and > 90%
- Inhibition (%) (herpes simplex type 1; 20 μM test compound): 95%
- Inhibition (%) (herpes simplex type 1; 100 μM test compound): > 99.9%
- Inhibition (%) (herpes simplex type 1; 500 μM test compound): > 99.9%
- Inhibition (%) ([2]; 20 μM test compound, 20 µM): 58% and 36%
- Inhibition (%) ([2]; 500 μM test compound, 500 µM): > 99.9% and 91% and 92%
- Score at day 5, treated [1, 8]: 1 and 2

SMILES: O=C(Oc1ccccc1)P(=O)([O-])[O-].[Na+].[Na+] [VIS 412, Disodium phenoxycarbonylphosphonate]
- Inhibition (%) (herpes simplex type 1; 500 μM test compound, 500 µM): 88%
- inhibition at 60 µM (herpes simplex type 1; Human alphaherpesvirus 1, 60 μM test compound): ~50%
- inhibition at 500 µM (herpes simplex type 1): 80%
- Score at day 5, treated [1, 10]: 0
- Score at day 5, treated [1, 9]: 0

SMILES: COc1ccc(OP(=O)([O-])C(=O)Oc2ccccc2)cc1.[Na+] [VIS 058, Sodium p-methoxyphenyl phenoxycarbonylphosphonate]
- Inhibition (%) (herpes simplex type 1; 10 μM test compound): ~ 50%
- Inhibition (%) (herpes simplex type 1; 40 μM test compound): > 90%
- Inhibition (%) (herpes simplex type 1; 100 μM test compound): 88%
- Inhibition (%) (herpes simplex type 1; 500 μM test compound): > 99.9%
- Inhibition (%) ([2]; 100 μM test compound): 84%
- Inhibition (%) ([2]; 500 μM test compound): > 99.9%

SMILES: Cc1ccc(OP(=O)(Oc2ccc(C)cc2)C(=O)Oc2ccccc2)cc1 [VIS 056, Di-p-tolyl phenoxycarbonylphosphonate]
- Inhibition (%) (herpes simplex type 1; 100 μM test compound): > 99%
- Inhibition (%) (herpes simplex type 1; 500 μM test compound): > 99%
- Inhibition (%) (influenza Victoria; 200 μM test compound): 75%

SMILES: O=C(Oc1ccccc1)P(=O)(Oc1ccccc1)Oc1ccccc1 [VIS 040, Hydroxycarbonylphosphonic Acid Triphenyl Ester]
- Inhibition (%) ([2]; 100 μM test compound): 90%
- Inhibition (%) ([2]; 500 μM test compound): > 99%
- Score at day 5, treated [1, 9]: 0

SMILES: O=C(Oc1ccccc1)P(=O)(O)Oc1ccccc1
- number of animals dead 24 hours after injection ([3]; 62.5 mg/kg ip): 0/2
- number of animals dead 24 hours after injection ([3]; 125 mg/kg ip): 0/2
- number of animals dead 24 hours after injection ([3]; 250 mg/kg ip): 0/2
- number of animals dead 24 hours after injection ([3]; 500 mg/kg ip): 0/2

SMILES: O=C(O)P(=O)(O)Oc1ccccc1 [drawing 125]
- number of animals dead 24 hours after injection ([3]; 62.5 mg/kg ip): 0/2
- number of animals dead 24 hours after injection ([3]; 125 mg/kg ip): 0/2
- number of animals dead 24 hours after injection ([3]; 250 mg/kg ip): 0/2
- number of animals dead 24 hours after injection ([3]; 500 mg/kg ip): 0/2

SMILES: Cc1ccc(OC(=O)P(=O)([O-])[O-])cc1.[Na+].[Na+] [VIS 130, Disodium p-tolyloxycarbonylphosphonate]
- inhibition at 200 µM (herpes simplex type 1; Human alphaherpesvirus 1, 200 μM test compound): ~80%
- inhibition at 400 µM (herpes simplex type 1): > 90%
- Score at day 5, treated [1, 4]: 1

SMILES: O=C(Oc1ccc(Cl)cc1)P(=O)([O-])[O-].[Na+].[Na+] [VIS 238, Disodium p-chlorophenoxycarbonylphosphonate]
- Inhibition (%) (herpes simplex type 1; 100 μM test compound, 100 µM): 52% and ~ 90%
- Inhibition (%) (herpes simplex type 1; 500 μM test compound, 500 µM): 99%
- inhibition at 500 µM (herpes simplex type 1): 96%
- Score at day 5, treated [1, 4]: 1

SMILES: O=C(Oc1ccccc1)P(=O)(O)O [drawing 123]
- number of animals dead 24 hours after injection ([3]; 62.5 mg/kg ip): 0/2
- number of animals dead 24 hours after injection ([3]; 125 mg/kg ip): 0/2
- number of animals dead 24 hours after injection ([3]; 250 mg/kg ip): 0/2
- number of animals dead 24 hours after injection ([3]; 500 mg/kg ip): 0/2

SMILES: CCOC(=O)c1ccc(OC(=O)P(=O)([O-])[O-])cc1.[Na+].[Na+] [VIS 242, Disodium p-(ethoxycarbonyl)phenoxycarbonylphosphonate]
- Score at day 5, treated [1, 4]: 1

SMILES: Cc1ccc(OP(=O)([O-])C(=O)Oc2ccccc2)cc1.[Na+] [VIS 065, sodium p-tolyl phenoxycarbonylphosphonate]
- Inhibition (%) (herpes simplex type 1; 10 μM test compound): ~ 50%
- Inhibition (%) (herpes simplex type 1; 20 μM test compound): > 90%
- Inhibition (%) (influenza Victoria; 200 μM test compound): 76%
- Inhibition (%) (influenza Victoria; 500 μM test compound): > 99%

SMILES: O=C(O)P(=O)(O)O [drawing 121, reference compound]
- Recovered phosphonoformic acid activity in urine (mouse, in vivo, ip): 1.25 μmol phosphonoformic acid

SMILES: O=C(Oc1ccccc1)P(=O)([O-])Oc1ccccc1.[Na+] [VIS 043, Sodium phenyl phenoxycarbonylphosphonate]
- Inhibition (%) (herpes simplex type 1; 20 μM test compound): ~ 0%
- Inhibition (%) (herpes simplex type 1; 40 μM test compound): > 90.9%
- Inhibition (%) (herpes simplex type 1; 100 μM test compound, 100 µM): > 99.9% and > 99%
- Inhibition (%) (herpes simplex type 1; 500 μM test compound): > 99.9%
- Inhibition (%) ([2]; 20 μM test compound, 20 µM): 62% and 47%
- Inhibition (%) ([2]; 100 μM test compound, 100 µM): 84% and 90% and > 99.9%
- Inhibition (%) ([2]; 500 μM test compound): > 99.9%
- Score at day 5, treated [1, 9]: 0

SMILES: O=C(Oc1ccc(Cl)c(Cl)c1)P(=O)(O)O [VIS 135, Disodium 3,4-dichlorophenoxycarbonylphosphonate]
- inhibition at 100 µM (herpes simplex type 1; Human alphaherpesvirus 1, 100 μM test compound): 85%

SMILES: O=C(O)P(=O)(O)Oc1ccccc1 [drawing 120]
- Recovered phosphonoformic acid activity in urine [5]: 1.00 μmol phosphonoformic acid
- Recovered phosphonoformic acid activity in urine [6]: 0.25 μmol phosphonoformic acid
- Recovered phosphonoformic acid activity in urine [7]: 0.25 μmol phosphonoformic acid

SMILES: O=C(Oc1ccccc1)P(=O)([O-])Oc1ccc(Cl)cc1.[Na+] [VIS 063, sodium p-chlorophenyl phenoxycarbonylphosphonate]
- Inhibition (%) (herpes simplex type 1; 5 μM test compound): ~ 50%
- Inhibition (%) (herpes simplex type 1; 10 μM test compound): > 90%
- Inhibition (%) (herpes simplex type 1; 20 μM test compound): 69%
- Inhibition (%) (herpes simplex type 1; 100 μM test compound): > 99.9%
- Inhibition (%) (herpes simplex type 1; 500 μM test compound): > 99.9%
- Inhibition (%) ([2]; 100 μM test compound): 72%
- Inhibition (%) ([2]; 500 μM test compound): > 99.9%
- Score at day 5, treated [1, 10]: 2 and 3

SMILES: O=C(O)P(=O)(O)Oc1ccc2c(c1)CCC2 [VIS 442, 5-Indanyl disodium oxycarbonylphosphonate]
- Inhibition (%) (herpes simplex type 1; 10 μM test compound): > 90%
- Inhibition (%) (herpes simplex type 1; 500 μM test compound): > 99.9%
- Inhibition (%) ([2]; 500 μM test compound): 94%
- Score at day 5, treated [1, 4]: 1
